The results in this text go back to article PMC5847526, “Inhibition of neuronal FLT3 receptor tyrosine kinase alleviates peripheral neuropathic pain in mice” (Nature Communications, 2018).

Molecules are shown by their SMILES.

By IC50 is commonly meant the concentration that inhibits the measured activity by half. As a reminder, the inhibition is the drop in the measured response relative to a control, in per cent.

Assay [1] concerns the target T1, fms-like tyrosine kinase 3 receptor (FLT3) (Homo sapiens, UniProt P36888).
T1 construct: SNAP-FLT3 (Lumi4-Tb labelled) in HEK293 cells; endogenous FLT3 in RS4-11 cells
The assay is described as follows: trFRET inhibition of Red-FL binding to SNAP-FLT3 on HEK293 cells; FL-induced FLT3 phosphorylation in RS4-11 cells (IC50 […]). In kind it is cell-based.

The next assay deals with ErbB2-ErbB3 (Homo sapiens, UniProt P04626+P21860). Nature of the assay: cell-based. Also on record: PathHunter eXpress functional assay (DiscoverX tkMAX), inhibition of reference ligand response. Conditions: read-out: % Inhibition of reference binding (Table 3).
The next assay concerns the target EphB2 (Homo sapiens, UniProt P29323). Nature of the assay: cell-based. Details: PathHunter eXpress functional assay (DiscoverX tkMAX), inhibition of reference ligand response. Conditions: read-out: % Inhibition of reference binding (Table 3).
Another assay concerns the target EphB3 (Homo sapiens, UniProt P54753). The assay is described as follows: cell-based. Particulars: read-out: % Inhibition of reference binding (Table 3). Details: PathHunter eXpress functional assay (DiscoverX tkMAX), inhibition of reference ligand response.
The target of a further assay is EphB4 (Homo sapiens, UniProt P54760). Nature of the assay: cell-based. Details: PathHunter eXpress functional assay (DiscoverX tkMAX), inhibition of reference ligand response. Particulars: read-out: % Inhibition of reference binding (Table 3).
The target of another assay is T2, ErbB1 (Homo sapiens, UniProt P00533).
T2 construct: gene EGFR
T2 sequence (P00533 whole entry): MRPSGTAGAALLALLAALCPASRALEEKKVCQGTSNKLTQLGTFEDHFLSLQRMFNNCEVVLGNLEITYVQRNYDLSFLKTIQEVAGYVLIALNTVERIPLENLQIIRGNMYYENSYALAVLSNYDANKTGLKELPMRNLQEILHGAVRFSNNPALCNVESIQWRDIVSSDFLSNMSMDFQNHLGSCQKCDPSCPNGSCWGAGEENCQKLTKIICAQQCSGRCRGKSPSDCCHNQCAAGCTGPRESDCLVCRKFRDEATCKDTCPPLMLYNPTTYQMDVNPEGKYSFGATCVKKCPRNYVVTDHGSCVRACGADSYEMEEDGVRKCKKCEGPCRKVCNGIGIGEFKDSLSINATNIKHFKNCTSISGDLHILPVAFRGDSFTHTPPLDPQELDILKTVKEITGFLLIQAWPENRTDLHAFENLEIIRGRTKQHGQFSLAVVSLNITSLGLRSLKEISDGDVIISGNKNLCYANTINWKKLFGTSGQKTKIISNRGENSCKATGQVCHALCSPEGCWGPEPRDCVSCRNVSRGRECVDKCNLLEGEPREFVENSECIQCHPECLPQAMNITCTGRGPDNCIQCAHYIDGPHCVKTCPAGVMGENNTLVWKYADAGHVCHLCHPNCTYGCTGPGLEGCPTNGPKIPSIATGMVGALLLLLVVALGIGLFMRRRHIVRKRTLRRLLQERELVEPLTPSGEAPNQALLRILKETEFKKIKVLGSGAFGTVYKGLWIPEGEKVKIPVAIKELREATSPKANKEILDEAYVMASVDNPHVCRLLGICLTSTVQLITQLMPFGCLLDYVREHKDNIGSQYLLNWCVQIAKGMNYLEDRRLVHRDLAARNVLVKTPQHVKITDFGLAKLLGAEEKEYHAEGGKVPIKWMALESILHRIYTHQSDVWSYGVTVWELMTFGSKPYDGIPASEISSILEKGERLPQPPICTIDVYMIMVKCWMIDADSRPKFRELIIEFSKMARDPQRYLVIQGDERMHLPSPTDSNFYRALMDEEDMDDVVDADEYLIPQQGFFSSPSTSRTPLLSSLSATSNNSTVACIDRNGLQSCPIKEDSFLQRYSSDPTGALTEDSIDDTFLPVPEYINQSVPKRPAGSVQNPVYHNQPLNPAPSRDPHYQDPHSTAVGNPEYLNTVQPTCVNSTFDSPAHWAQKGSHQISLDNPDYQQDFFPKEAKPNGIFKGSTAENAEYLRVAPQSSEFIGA
The assay is described as follows: cell-based. Also on record: PathHunter eXpress functional assay (DiscoverX tkMAX), inhibition of reference ligand response. Particulars: read-out: % Inhibition of reference binding (Table 3).

Another assay has as its target ErbB4 (Homo sapiens, UniProt Q15303). The assay is described as follows: cell-based. Also on record: PathHunter eXpress functional assay (DiscoverX tkMAX), inhibition of reference ligand response. Particulars: read-out: % Inhibition of reference binding (Table 3).
For a further assay, the target named is FLT4 (Homo sapiens, UniProt P35916). Nature of the assay: cell-based. Particulars: read-out: % Inhibition of reference binding (Table 3). Details: PathHunter eXpress functional assay (DiscoverX tkMAX), inhibition of reference ligand response.
In a further assay the target is IGF1R (Homo sapiens, UniProt P08069). Nature of the assay: cell-based. Also on record: PathHunter eXpress functional assay (DiscoverX tkMAX), inhibition of reference ligand response. Particulars: read-out: % Inhibition of reference binding (Table 3).
The target in a further assay is KDR (Homo sapiens, UniProt P35968). Nature of the assay: cell-based. Also on record: PathHunter eXpress functional assay (DiscoverX tkMAX), inhibition of reference ligand response. Conditions: read-out: % Inhibition of reference binding (Table 3).
The next assay has as its target PDGFRa (Homo sapiens, UniProt P16234). The assay is described as follows: cell-based. Details: PathHunter eXpress functional assay (DiscoverX tkMAX), inhibition of reference ligand response. Conditions: read-out: % Inhibition of reference binding (Table 3).
The target of a further assay is PDGFRb (Homo sapiens, UniProt P09619). The assay is described as follows: cell-based. Particulars: read-out: % Inhibition of reference binding (Table 3). Details: PathHunter eXpress functional assay (DiscoverX tkMAX), inhibition of reference ligand response.
The target in a further assay is c-KIT (Homo sapiens, UniProt P10721). Nature of the assay: cell-based. Details: PathHunter eXpress functional assay (DiscoverX tkMAX), inhibition of reference ligand response. Conditions: read-out: % Inhibition of reference binding (Table 3).
In the next assay the target is T3, TrkB-P75 (Homo sapiens, UniProt Q16620).
T3 construct: gene NTRK2
Nature of the assay: cell-based. Details: PathHunter eXpress functional assay (DiscoverX tkMAX), inhibition of reference ligand response. Particulars: read-out: % Inhibition of reference binding (Table 3).

ErbB4, sequence (Q15303 whole entry): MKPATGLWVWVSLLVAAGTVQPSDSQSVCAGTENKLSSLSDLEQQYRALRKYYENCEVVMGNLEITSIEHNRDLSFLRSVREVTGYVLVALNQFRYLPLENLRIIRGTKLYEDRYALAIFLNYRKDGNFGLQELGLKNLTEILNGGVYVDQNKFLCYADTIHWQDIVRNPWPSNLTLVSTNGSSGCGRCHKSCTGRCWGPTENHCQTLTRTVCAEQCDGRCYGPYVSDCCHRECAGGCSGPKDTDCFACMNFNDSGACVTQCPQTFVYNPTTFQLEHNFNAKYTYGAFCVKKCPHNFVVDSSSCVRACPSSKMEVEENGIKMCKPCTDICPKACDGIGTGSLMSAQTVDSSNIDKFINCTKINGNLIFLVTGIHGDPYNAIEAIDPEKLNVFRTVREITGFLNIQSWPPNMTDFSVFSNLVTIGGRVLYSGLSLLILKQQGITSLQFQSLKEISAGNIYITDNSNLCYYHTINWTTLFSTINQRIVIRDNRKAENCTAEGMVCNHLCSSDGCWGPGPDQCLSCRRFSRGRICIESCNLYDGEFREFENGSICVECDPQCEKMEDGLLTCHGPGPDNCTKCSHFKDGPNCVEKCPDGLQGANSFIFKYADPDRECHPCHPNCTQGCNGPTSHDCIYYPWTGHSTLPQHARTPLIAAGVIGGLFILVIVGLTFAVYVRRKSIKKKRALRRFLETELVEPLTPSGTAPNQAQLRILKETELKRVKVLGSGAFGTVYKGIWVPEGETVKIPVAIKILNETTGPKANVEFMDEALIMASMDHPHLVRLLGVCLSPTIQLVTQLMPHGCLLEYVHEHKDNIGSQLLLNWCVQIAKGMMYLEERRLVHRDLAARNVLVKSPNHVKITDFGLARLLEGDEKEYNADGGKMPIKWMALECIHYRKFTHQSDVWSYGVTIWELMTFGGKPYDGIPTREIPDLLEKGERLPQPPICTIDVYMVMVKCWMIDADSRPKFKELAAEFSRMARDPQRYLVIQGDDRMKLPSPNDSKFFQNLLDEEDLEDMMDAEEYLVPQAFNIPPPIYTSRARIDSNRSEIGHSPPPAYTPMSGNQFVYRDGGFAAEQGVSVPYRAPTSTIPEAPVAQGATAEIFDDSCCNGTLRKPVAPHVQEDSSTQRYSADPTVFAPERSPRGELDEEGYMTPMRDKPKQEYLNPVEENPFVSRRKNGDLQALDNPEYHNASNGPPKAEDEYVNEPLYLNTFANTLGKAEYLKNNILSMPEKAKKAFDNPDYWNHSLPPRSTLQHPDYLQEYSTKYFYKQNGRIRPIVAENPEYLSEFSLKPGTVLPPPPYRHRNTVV
T1 sequence (P36888 27-993): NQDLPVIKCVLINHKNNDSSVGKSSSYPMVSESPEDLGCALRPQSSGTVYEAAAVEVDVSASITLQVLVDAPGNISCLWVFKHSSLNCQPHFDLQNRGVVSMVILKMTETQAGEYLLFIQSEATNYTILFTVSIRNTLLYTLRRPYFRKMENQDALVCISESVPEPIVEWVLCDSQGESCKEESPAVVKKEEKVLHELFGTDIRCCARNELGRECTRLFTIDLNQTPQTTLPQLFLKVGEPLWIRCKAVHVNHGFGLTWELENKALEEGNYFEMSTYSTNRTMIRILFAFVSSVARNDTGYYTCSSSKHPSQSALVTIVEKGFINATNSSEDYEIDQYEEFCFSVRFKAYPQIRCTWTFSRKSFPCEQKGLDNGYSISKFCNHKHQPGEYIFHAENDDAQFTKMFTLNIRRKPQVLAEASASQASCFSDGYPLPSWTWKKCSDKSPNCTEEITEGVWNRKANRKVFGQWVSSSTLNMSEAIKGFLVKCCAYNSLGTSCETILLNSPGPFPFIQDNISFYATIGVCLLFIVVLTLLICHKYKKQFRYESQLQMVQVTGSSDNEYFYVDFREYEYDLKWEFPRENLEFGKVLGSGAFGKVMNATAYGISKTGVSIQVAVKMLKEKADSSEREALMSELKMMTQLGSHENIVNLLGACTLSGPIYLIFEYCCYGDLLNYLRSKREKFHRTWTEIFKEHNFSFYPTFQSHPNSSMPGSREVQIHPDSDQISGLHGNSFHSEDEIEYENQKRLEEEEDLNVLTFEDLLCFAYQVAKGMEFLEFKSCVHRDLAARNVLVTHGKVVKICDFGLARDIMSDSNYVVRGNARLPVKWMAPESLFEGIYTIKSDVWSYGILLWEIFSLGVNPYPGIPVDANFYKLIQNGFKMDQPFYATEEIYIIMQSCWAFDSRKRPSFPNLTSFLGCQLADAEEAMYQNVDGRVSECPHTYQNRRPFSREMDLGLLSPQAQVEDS
EphB2, sequence (P29323 whole entry): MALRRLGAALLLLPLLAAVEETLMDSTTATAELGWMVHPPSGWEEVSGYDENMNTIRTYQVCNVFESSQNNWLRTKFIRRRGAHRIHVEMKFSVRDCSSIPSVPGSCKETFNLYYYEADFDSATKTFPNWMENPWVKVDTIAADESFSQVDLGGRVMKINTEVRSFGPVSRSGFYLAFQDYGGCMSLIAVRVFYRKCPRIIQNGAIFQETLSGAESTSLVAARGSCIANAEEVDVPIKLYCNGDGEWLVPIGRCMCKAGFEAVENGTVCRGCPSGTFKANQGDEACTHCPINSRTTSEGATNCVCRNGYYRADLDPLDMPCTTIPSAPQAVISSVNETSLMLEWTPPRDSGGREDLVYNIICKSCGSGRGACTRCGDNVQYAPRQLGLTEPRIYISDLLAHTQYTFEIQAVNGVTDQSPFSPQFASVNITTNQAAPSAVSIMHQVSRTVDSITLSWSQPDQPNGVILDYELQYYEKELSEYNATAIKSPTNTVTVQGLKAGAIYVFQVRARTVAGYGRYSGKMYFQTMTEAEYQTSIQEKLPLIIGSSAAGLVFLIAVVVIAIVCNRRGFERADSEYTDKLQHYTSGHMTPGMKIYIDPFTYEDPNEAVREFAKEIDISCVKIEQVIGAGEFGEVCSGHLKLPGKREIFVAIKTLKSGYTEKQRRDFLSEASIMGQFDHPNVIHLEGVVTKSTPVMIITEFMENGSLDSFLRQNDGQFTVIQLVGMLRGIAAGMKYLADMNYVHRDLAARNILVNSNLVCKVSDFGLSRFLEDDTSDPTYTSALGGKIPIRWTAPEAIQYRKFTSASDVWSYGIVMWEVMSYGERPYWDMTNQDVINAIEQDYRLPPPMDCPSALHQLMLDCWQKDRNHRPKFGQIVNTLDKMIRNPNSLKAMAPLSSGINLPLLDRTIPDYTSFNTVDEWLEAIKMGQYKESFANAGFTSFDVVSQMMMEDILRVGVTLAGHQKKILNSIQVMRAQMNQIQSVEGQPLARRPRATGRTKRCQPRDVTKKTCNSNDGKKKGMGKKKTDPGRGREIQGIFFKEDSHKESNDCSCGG

In assay [1], `O=C(Nc1cc(Cl)ccc1O)c1cccc(S(=O)(=O)N2CCCCC2)c1` [compound 66, BDT001] yielded an IC50 of 11 µM. In addition, the inhibition at 10 µM at ErbB2-ErbB3 is 13.6%; at EphB2, 1.4%; at EphB3 it was 2.8%; at EphB4, 22.7%; on ErbB1, 8.7%; at ErbB4 it was -0.1%. Besides, the inhibition at 10 µM at FLT4 is 16.8%; on IGF1R, 10.1%; at KDR, -3.1%; at PDGFRa, 2.2%; at PDGFRb, 4.2%; at c-KIT, 7.8%. Moreover, at TrkB-P75, the inhibition at 10 µM is -1.3%.
